Results reported in ChEMBL document CHEMBL1125850, “Synthesis of substrate-based inhibitors of HMG CoA reductase” (Bioorg Med Chem Lett, 1991).
Calls of active or inactive are those of the source. No cut-off for these calls is given here.

How the values were obtained:
Type in all cases: microsomes
Details in all cases: Microsome
[1] = target: T1, 3-hydroxy-3-methylglutaryl-coenzyme A reductase (Rattus norvegicus) (UniProt P51639); assay: Inhibition of enzyme activity in a rat hepatic microsomal HMG-CoA reductase at 100 uM
T1 sequence (whole entry): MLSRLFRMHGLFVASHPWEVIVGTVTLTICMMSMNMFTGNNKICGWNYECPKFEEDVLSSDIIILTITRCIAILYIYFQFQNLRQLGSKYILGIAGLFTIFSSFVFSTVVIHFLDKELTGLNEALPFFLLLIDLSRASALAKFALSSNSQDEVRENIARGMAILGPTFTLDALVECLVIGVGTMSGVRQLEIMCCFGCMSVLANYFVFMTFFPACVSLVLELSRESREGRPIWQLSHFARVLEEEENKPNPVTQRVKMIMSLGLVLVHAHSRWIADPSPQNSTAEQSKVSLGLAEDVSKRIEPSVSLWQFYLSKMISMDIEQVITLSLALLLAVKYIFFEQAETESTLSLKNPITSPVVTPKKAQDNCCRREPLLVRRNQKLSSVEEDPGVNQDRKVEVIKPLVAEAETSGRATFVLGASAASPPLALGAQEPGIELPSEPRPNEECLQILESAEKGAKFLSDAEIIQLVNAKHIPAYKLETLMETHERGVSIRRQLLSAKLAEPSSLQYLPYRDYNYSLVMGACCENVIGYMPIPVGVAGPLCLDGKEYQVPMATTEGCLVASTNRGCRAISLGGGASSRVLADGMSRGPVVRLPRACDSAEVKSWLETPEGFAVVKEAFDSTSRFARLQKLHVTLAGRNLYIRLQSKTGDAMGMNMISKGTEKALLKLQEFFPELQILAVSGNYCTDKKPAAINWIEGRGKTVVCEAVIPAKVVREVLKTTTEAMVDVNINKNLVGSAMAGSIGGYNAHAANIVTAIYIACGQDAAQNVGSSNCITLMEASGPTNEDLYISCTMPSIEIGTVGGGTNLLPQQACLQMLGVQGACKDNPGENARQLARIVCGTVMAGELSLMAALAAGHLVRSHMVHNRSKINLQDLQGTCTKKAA

[2] = target: T1, 3-hydroxy-3-methylglutaryl-coenzyme A reductase (Rattus norvegicus); assay: Inhibition of enzyme activity in a rat hepatic microsomal HMG-CoA reductase at 100 uM IA means inactive
[3] = target: T1, 3-hydroxy-3-methylglutaryl-coenzyme A reductase (Rattus norvegicus); assay: Inhibition of enzyme activity in a rat hepatic microsomal HMG-CoA reductase at 100 uM; IA means inactive

**Q.** Which inhibition [1] does the source give for CC(C)[C@@H](O)C(=O)NCCC(=O)NCCSCCC(O)CC(=O)O (stereo partly drawn) here?
**A.** Its inhibition is 24%.

**Q.** Which Activity [2] does the source give for CC(C)[C@@H](O)C(=O)NCCC(=O)NCCSCC(=O)CC(O)CC(=O)O (stereo partly drawn) here?
**A.** Its Activity is “inactive”.

**Q.** How did the Activity [3] turn out when CC(C)[C@@H](O)C(=O)NCCC(=O)NCCSCC(O)CC(O)CC(=O)O (stereo partly drawn) was run?
**A.** The Activity was “inactive”.
